# Results as given in patent US11673898B2, “Substituted inhibitors of menin-MLL and methods of use” (Kura Oncology, Inc., priority 2016, dated 2023).
# Target: T1, Menin MLL 4-43 (Homo sapiens, UniProt O00255)
# T1 sequence (O00255 1-610): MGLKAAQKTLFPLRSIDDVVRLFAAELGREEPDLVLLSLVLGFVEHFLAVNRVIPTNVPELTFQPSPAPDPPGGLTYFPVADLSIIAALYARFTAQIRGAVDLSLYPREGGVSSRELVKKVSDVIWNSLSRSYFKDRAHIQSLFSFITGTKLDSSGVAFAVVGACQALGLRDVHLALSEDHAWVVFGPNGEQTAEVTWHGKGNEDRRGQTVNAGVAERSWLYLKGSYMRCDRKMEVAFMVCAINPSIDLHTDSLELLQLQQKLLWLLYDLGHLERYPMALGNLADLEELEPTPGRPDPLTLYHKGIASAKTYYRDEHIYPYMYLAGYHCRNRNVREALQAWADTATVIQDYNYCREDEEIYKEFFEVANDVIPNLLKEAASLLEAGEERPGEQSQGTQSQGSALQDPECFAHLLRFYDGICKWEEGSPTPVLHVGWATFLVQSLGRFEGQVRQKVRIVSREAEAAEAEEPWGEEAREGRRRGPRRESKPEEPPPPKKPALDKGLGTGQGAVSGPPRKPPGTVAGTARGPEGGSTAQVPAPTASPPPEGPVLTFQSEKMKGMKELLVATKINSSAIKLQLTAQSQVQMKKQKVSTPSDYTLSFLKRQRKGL
# Test: Fluorescence polarization (FP) competition assay of the menin-MLL interaction
# Format: binding
# Conditions: fluorescence polarization assay; read-out: Menin MLL 4-43 IC50
row,Structure (SMILES),IC50
1,Cc1c(CN2CCC(Nc3ncnc4sc(CC(F)(F)F)cc34)CC2)ccc2c1cc(C#N)n2C[C@H](C)N1CCN(S(=O)(=O)CF)[C@H](C)C1 [Compound 145],50 to 250 nM
2,Cc1c(CN2CCC(Nc3ncnc4sc(CC(F)(F)F)cc34)CC2)ccc2c1cc(C#N)n2CCN1CCC2(CCN(S(C)(=O)=O)C2)C1 (centres unmarked) [Compound 53],20 to 1000 nM
3,[2H]C([2H])(C(C)N1CCN(S(C)(=O)=O)CC1)n1c(C#N)cc2c(C)c(CN3CCC(Nc4ncnc5sc(CC(F)(F)F)cc45)CC3)ccc21 (centres unmarked) [Compound 74],50 to 250 nM
4,CC[C@@H]1CN(C(C)Cn2c(C#N)cc3c(C)c(CN4CCC(Nc5ncnc6sc(CC(F)(F)F)cc56)CC4)ccc32)CCN1S(C)(=O)=O (some centres unmarked) [Compound 29],50 to 250 nM
5,Cc1c(CN2CCC(Nc3ncnc4sc(CC(F)(F)F)cc34)CC2)ccc2c1cc(C#N)n2CC(C)N1C[C@@H](C)N(S(C)(=O)=O)[C@H](C)C1 (some centres unmarked) [Compound 22],< 50 nM
6,Cc1c(CN2CCC(Nc3ncnc4sc(CC(F)(F)F)cc34)CC2)ccc2c1cc(C#N)n2CC(C)N1CCN(S(C)(=O)=O)C(C(=O)O)C1 (centres unmarked) [Compound 82],20 to 1000 nM
7,Cc1c(CN2CCC(Nc3ncnc4sc(CC(F)(F)F)cc34)CC2)ccc2c1cc(C#N)n2CCN1CCN(S(C)(=O)=O)CC1C (centres unmarked) [Compound 45],20 to 1000 nM
8,Cc1c(CN2CCC(Nc3ncnc4sc(CC(F)(F)F)cc34)CC2)ccc2c1cc(C#N)n2CC(C)N1CCN(S(=O)(=O)NCCN)CC1 (centres unmarked) [Compound 88],< 50 nM
9,Cc1c(CN2CCC(Nc3ncnc4sc(CC(F)(F)F)cc34)CC2)ccc2c1cc(C#N)n2CC(C)N1CCN(S(C)(=O)=O)CC1 (centres unmarked) [Compound 3],20 to 1000 nM
10,Cc1c(CN2CCC(Nc3ncnc4sc(CC(F)(F)F)cc34)CC2)ccc2c1cc(C#N)n2CCN1CC(C)N(S(C)(=O)=O)CC1C (centres unmarked) [Compound 44],20 to 1000 nM
11,Cc1c(CN2CCC(Nc3ncnc4sc(CC(F)(F)F)cc34)CC2)ccc2c1cc(C#N)n2CC(C)N1CC2CC(C1)N2S(C)(=O)=O (centres unmarked) [Compound 30],50 to 250 nM
12,Cc1c(CN2CCC(Nc3ncnc4sc(CC(F)(F)F)cc34)CC2)ccc2c1cc(C#N)n2CCC1CCN(S(C)(=O)=O)C(C)C1 (centres unmarked) [Compound 59],20 to 1000 nM
13,Cc1c(CN2CCC(Nc3nc(N)nc4sc(CC(F)(F)F)cc34)CC2)ccc2c1cc(C#N)n2C[C@H](C)N1CCN(S(=O)(=O)CF)CC1 [Compound 149],< 50 nM
14,Cc1c(CN2CCC(Nc3ncnc4sc(CC(F)(F)F)cc34)CC2)ccc2c1cc(C#N)n2C[C@H](C)N1CCN(S(=O)(=O)CC(F)(F)F)CC1 [Compound 126],50 to 250 nM
15,Cc1c(CN2CCC(Nc3ncnc4sc(CC(F)(F)F)cc34)CC2)ccc2c1cc(C#N)n2C[C@H](C)N1CCN(S(C)(=O)=O)[C@H](C)C1 [Compound 19],50 to 250 nM
16,CC[C@H]1CN(C(C)Cn2c(C#N)cc3c(C)c(CN4CCC(Nc5ncnc6sc(CC(F)(F)F)cc56)CC4)ccc32)CCN1S(C)(=O)=O (some centres unmarked) [Compound 26],20 to 1000 nM
17,Cc1c(CN2CCC(Nc3ncnc4sc(CC(F)(F)F)cc34)CC2)ccc2c1cc(C#N)n2CCN1CCN(S(C)(=O)=O)C(C)C1 (centres unmarked) [Compound 43],50 to 250 nM
18,CNS(=O)(=O)N1CCN([C@@H](C)Cn2c(C#N)cc3c(C)c(CN4CCC(Nc5ncnc6sc(CC(F)(F)F)cc56)CC4)ccc32)CC1 [Compound 64],< 50 nM
19,Cc1c(CN2CCC(Nc3ncnc4sc(CC(F)(F)F)cc34)CC2)ccc2c1cc(C#N)n2CC(C1CC1)N1CCN(S(C)(=O)=O)CC1 (centres unmarked) [Compound 23],> 1000 nM
20,Cc1c(CN2CCC(Nc3ncnc4sc(CC(F)(F)F)cc34)CC2)ccc2c1cc(C#N)n2C[C@H](C)N1CCN(C2=NCCO2)CC1 [Compound 143],50 to 250 nM
21,Cc1c(CN2CCC(Nc3ncnc4sc(CC(F)(F)F)cc34)CC2)ccc2c1cc(C#N)n2CCC1(C)CCN(S(C)(=O)=O)CC1 [Compound 60],> 1000 nM
22,Cc1c(CN2CCC(Nc3ncnc4sc(CC(F)(F)F)cc34)CC2)ccc2c1cc(C#N)n2C[C@H](C)N1CCN(S(=O)(=O)CF)CC1 [Compound 70],50 to 250 nM
23,Cc1nc(NC2CCN(Cc3ccc4c(cc(C#N)n4C[C@H](C)N4CCN(C=O)CC4)c3C)CC2)c2cc(CC(F)(F)F)sc2n1 [Compound 136],< 50 nM
24,C=CC(=O)Nc1ccc(C(Cn2c(C#N)cc3c(C)c(CN4CCC(Nc5ncnc6sc(CC(F)(F)F)cc56)CC4)ccc32)OC)cc1 (centres unmarked) [Compound 1],20 to 1000 nM
25,CCNS(=O)(=O)N1CCN([C@@H](C)Cn2c(C#N)cc3c(C)c(CN4CCC(Nc5ncnc6sc(CC(F)(F)F)cc56)CC4)ccc32)CC1 [Compound 119],< 50 nM

# Continued, values first:
row,IC50,Structure (SMILES)
1,< 50 nM,Cc1c(CN2CCC(Nc3ncnc4sc(CC(F)(F)F)cc34)CC2)ccc2c1cc(C#N)n2C[C@H](C)N1CCN(CC(N)=O)CC1 [Compound 154]
2,50 to 250 nM,Cc1c(CN2CCC(Nc3nc(N)nc4sc(CC(F)(F)F)cc34)CC2)ccc2c1cc(C#N)n2C[C@H](C)N1CCN(C2CC2)CC1 [Compound 190]
3,< 50 nM,CNc1nc(NC2CCN(Cc3ccc4c(cc(C#N)n4CC(C)C4CCN(S(C)(=O)=O)CC4)c3C)CC2)c2cc(CC(F)(F)F)sc2n1 (centres unmarked) [Compound 247]
4,20 to 1000 nM,Cc1c(CN2CCC(Nc3nc(C4CC4)nc4sc(CC(F)(F)F)cc34)CC2)ccc2c1cc(C#N)n2C[C@H](C)N1CCN(S(C)(=O)=O)CC1 [Compound 173]
5,< 50 nM,C=CC(=O)NC1CCN([C@@H](C)Cn2c(C#N)cc3c(C)c(CN4CCC(Nc5nc(NC)nc6sc(CC(F)(F)F)cc56)CC4)ccc32)CC1 [Compound 212]
6,50 to 250 nM,Cc1c(CN2CCC(Nc3ncnc4sc(CC(F)(F)F)cc34)CC2)ccc2c1cc(C#N)n2C[C@H](C)N1CCN(C(C)C(N)=O)CC1 (some centres unmarked) [Compound 156]
7,50 to 250 nM,Cc1c(CN2CCC(Nc3ncnc4sc(CC(F)(F)F)cc34)CC2)ccc2c1cc(C#N)n2CCc1ccc(NC(=O)C2(C#N)CC2)cc1 [Compound 1002]
8,> 1000 nM,C=CC(=O)Nc1ccc(CCn2c(C#N)cc3c(C)c(CN4CCC(Nc5ncnc6sc(CC(F)(F)F)cc56)CC4)ccc32)cc1OCc1cn(CCOCCOCCOCCNC(=O)CCCC[C@H]2SC[C@H]3NC(=O)N[C@H]32)nn1 [Compound 1012]
9,< 50 nM,CNc1nc(NC2CCN(Cc3ccc4c(cc(C#N)n4CCN4CCN(C)C(=O)C4)c3C)CC2)c2cc(CC(F)(F)F)sc2n1 [Compound 1024]
10,50 to 250 nM,CNc1nc(NC2CCN(Cc3ccc4c(cc(C#N)n4CC(C)c4cn[nH]c4)c3C)CC2)c2cc(CC(F)(F)F)sc2n1 (centres unmarked) [Compound 230]
11,< 50 nM,CCS(=O)(=O)N1CCN([C@@H](C)Cn2c(C#N)cc3c(C)c(CN4CCC(Nc5nc(NC)nc6sc(CC(F)(F)F)cc56)CC4)ccc32)CC1 [Compound 210]
12,< 50 nM,CNc1nc(NC2CCN(Cc3ccc4c(cc(C#N)n4C[C@H](C)N4CCC(CC(=O)N(C)C)CC4)c3C)CC2)c2cc(CC(F)(F)F)sc2n1 [Compound 202]
13,< 50 nM,Cc1c(CN2CCC(Nc3nc(N)nc4sc(CC(F)(F)F)cc34)CC2)ccc2c1cc(C#N)n2C[C@H](C)N1CCC(S(C)(=O)=O)CC1 [Compound 158]
14,< 50 nM,CCC(=O)NC1CCN([C@@H](C)Cn2c(C#N)cc3c(C)c(CN4CCC(Nc5nc(NC)nc6sc(CC(F)(F)F)cc56)CC4)ccc32)CC1 [Compound 213]
15,< 50 nM,CNC(=O)[C@@H]1CN([C@@H](C)Cn2c(C#N)cc3c(C)c(CN4CCC(Nc5nc(NC)nc6sc(CC(F)(F)F)cc56)CC4)ccc32)CCN1S(C)(=O)=O [Compound 197]
16,> 1000 nM,CCOC(=O)c1c(CC(F)(F)F)sc2ncnc(NC3CCN(Cc4ccc5c(cc(C#N)n5C[C@H](C)N5CCN(S(C)(=O)=O)CC5)c4C)CC3)c12 [Compound 200]
